This passage reports AC50 results from US20100196357A1, “Microrna modulators and method for identifying and using the same” (priority 2008, published 2010).

For the test, the system named is miR-21. Nature of the test: high throughput screen for compounds that modulate miR-21. The test is classed as cell-based. The conditions noted are these: Homo sapiens; Tables 4-12. The text has this:
This example describes a high throughput screening assay to identify small organic molecules that perturb the miRNA process. These active small molecules can be used as novel chemical tools to better understand miRNA functions and the molecular mechanisms of miRNA biogenesis. Moreover, miRNA inhibitors can be potentially developed into new therapeutics, including anticancer and antiviral agents. The high throughput assay is composed of a two-stage screening protocol, including of a primary screen to identify potential lead compounds from small molecule collections, and a secondary screen to evaluate and characterize the primary actives and to obtain a detailed structure-activity relationship (SAR).
Primary miR-21 Assay. The primary miR-21 FLuc reporter assay is carried out with HeLa cells expressing the Luc-miR-21 reporter using a 48-hour incubation time. Active compounds that increase the luciferase response are identified based upon inhibition of miR-21.
SAR. The concentration-response data for the entire high throughput screen is plotted and modeled by a four parameter logistic fit and SAR analysis is performed according to conventional approaches (Iglese, et al. (2006) Proc. Natl. Acad. Sci. USA 130:11473-8). In brief, Class 1.1 and 1.2 are full curves containing upper and lower asymptotes with efficacy ≧80% and <80%, respectively. […]

The term AC50 denotes the midpoint of the concentration-response curve, whichever way the signal moves.

For `C/C(=N\NC(=O)c1cccs1)c1ccncc1`, the activity was half-maximal at 7.36 µM (AC50).

Regarding `COc1ccc2c(c1)CC(C)C/C2=N\NC(=O)c1ccco1` (centres unmarked), the AC50 is 16.5 µM.
